Read-outs that look alike come from different tables or passages of the source.
How the values were obtained:
Format in all cases: cell-based
[1] = test system: Botrytis cinerea; test: In vitro microtest of Botrytis cinerea
Method: V.9. In vitro microtest of Botrytis cinerea
(§1) The microtest was performed in liquid medium with potato-dextrose broth (PDB) using microtitre plates.
(§2) The active compound is applied as the technical active substance dissolved in methanol.
(§3) A spore suspension of Botrytis cinerea was used for inoculation. After 5 days (combination A2+B1), 4 days (combination A3+B3), or 7 days ( combination A5+B1) of incubation by darkness under shaking (10 Hrz), the optical density in each cavity was evaluated with the aid of a microtitre plate reader. 0% means an efficacy which corresponds to that of the control, while an efficacy of 100% means that no fungal growth is observed.

[2] = test system: Rhizoctonia solani; test: In vitro microtest of Rhizoctonia solani
Method: V.10. In vitro Microtest of Rhizoctania solani
as §1, §2
A mycelium suspension of Rhizoctonia solani was used for inoculation. After 3 days (combinations A1+B3, A3+B2), 7 days (combination A2+B1), 4 days (combination A4+B2) or 5 days (combination A5+B1) of incubation by darkness under shaking (10 Hrz), the optical density in each cavity was evaluated with the aid of a microtitre plate reader.
0% means an efficacy which corresponds to that of the control, while an efficacy of 100% means that no fungal growth is observed.

[3] = test system: Septoria tritici; test: In vitro microtest of Septoria tritici; conditions: 3 days incubation
Method: V.8. In vitro microtest of Septoria tritici
The microtest was performed in liquid medium with potato-dextrose broth (PDB) using microlitre plates.
(§4) The active compound is applied as the technical active substance dissolved in methanol. A spore suspension of Septoria tritici was used for inoculation. After 3 days of incubation by darkness under shaking (10 Hrz), the optical density in each cavity was evaluated with the aid of a microtitre plate reader. 0% means an efficacy which corresponds to that of the control, while an efficacy of 100% means that no fungal growth is observed.

[4] = test system: Coriolus versicolor; test: In vitro microtest of Coriolus versicolor; conditions: 3 days incubation
Method: V.5. In vitro Microtest of Coriolus versicolor
as §1, §2
as §4, with “A” for “The active compound is applied as the technical active substance dissolved in methanol. A”, “mycelium” for “spore”, “Coriolus versicolor” for “Septoria tritici”

[5] = test system: Pyricularia oryzae
[6] = test system: Penicillium brevicaule; test: In vitro microtest of Penicillium brevicaule (optical density in PDB, microtitre plates); conditions: 7 days incubation
[7] = test system: Gibberella zeae
[8] = test system: Alternaria mali; test: In vitro microtest of Alternaria mali; conditions: 3 ppm; 4 days incubation
Method: V.6. In vitro Microtest of Alternaria mali
as §1
as §4, with “Alternaria mali” for “Septoria tritici”, “4” for “3”

[9] = test system: Phytophthora cryptogea; test: In vitro microtest of Phytophthora cryptogea; conditions: 3 ppm; 4 days incubation
Method: V.11. In vitro Microtest of Phytophthora cryptogea
as §1, §2
as §3, with “mycelium” for “spore”, “Phytophthora cryptogea” for “Botrytis cinerea”, “After” for “After 5 days (combination A2+B1),”, “days” for “days (combination A3+B3), or 7 days ( combination A5+B1)”

[10] = test system: Ustilago avenae; test: In vitro microtest of Ustilago avenae; conditions: 1 ppm; 5 days incubation
Method: V.12. In vitro Microtest of Ustilago avenae
as §1, §2
as §3, with “Ustilago avenae” for “Botrytis cinerea”, “days” for “days (combination A2+B1), 4 days (combination A3+B3), or 7 days ( combination A5+B1)”

SMILES: CCCCCC/C=C\CCCOc1cccc(C(=O)N[C@@H]2C(O[C@H]3C(O)C(NC(C)=O)C(O[C@@H]4C(CO)O[C@@H](O[C@H]5C(O)C(NC(C)=O)C(OC6C(CO[C@@H]7OC(C)C(O)[C@H](O)[C@H]7OC)OC(O)[C@@H](NC(C)=O)[C@H]6O)O[C@H]5CO)[C@@H](NC(C)=O)C4O)O[C@H]3CO)OC(CO)[C@@H](O)[C@@H]2O)c1 (some centres unmarked) [B1]
- Efficacy in % ([1]; 0.00000003 ppm, 7 days incubation): 10%
- Efficacy in % ([1]; 0.00003 ppm, 5 days incubation): 18%
- Efficacy in % ([2]; 0.00000003 ppm, 5 days incubation): 41%
- Efficacy in % ([2]; 0.00001 ppm, 7 days incubation): 9%
- Efficacy in % ([3]; 0.000001 ppm): 1%
- Efficacy in % ([4]; 0.000001 ppm): 22%
- Efficacy in % ([5]; 0.00001 ppm, 3 days incubation): 2%
- Efficacy in % ([5]; 0.00003 ppm, 5 days incubation): 5%
- Efficacy in % ([6]; 0.00003 ppm): 0%
- Efficacy in % ([7]; 0.000001 ppm, 3 days incubation): 4%
- Efficacy in % ([7]; 0.00001 ppm, 3 days incubation): 12%

SMILES: Cc1nn(C)c(F)c1C(=O)Nc1ccccc1C(C)CC(C)C (centres unmarked) [A1, N-[2-(1,3-dimethylbutyl)phenyl]-5-fluoro-1,3-dimethyl-1H-pyrazole-4-carboxamide]
- Efficacy in % ([2]; 0.003 ppm, 3 days incubation): 79%
- Efficacy in % ([3]; 0.01 ppm): 4%
- Efficacy in % ([4]; 0.01 ppm): 97%
- Efficacy in % ([6]; 0.3 ppm): 37%
- Efficacy in % ([7]; 1 ppm, 4 days incubation): 39%

SMILES: CC(C)(C)C(O)(CCc1ccc(Cl)cc1)Cn1cncn1 (centres unmarked) [A3, Tebuconazole]
- Efficacy in % ([1]; 0.1 ppm, 4 days incubation): 33%
- Efficacy in % [8]: 97%
- Efficacy in % ([2]; 3 ppm, 3 days incubation): 47%
- Efficacy in % ([5]; 0.3 ppm, 5 days incubation): 96%
- Efficacy in % ([7]; 0.01 ppm, 3 days incubation): 9%

SMILES: OC(Cc1ccccc1Cl)(Cn1nc[nH]c1=S)C1(Cl)CC1 (centres unmarked) [A2, Prothioconazole]
- Efficacy in % ([1]; 0.3 ppm, 5 days incubation): 40%
- Efficacy in % ([2]; 0.1 ppm, 7 days incubation): 50%
- Efficacy in % ([4]; 0.003 ppm): 48%
- Efficacy in % [9]: 19%

SMILES: COCC(=O)N(c1c(C)cccc1C)C(C)C(=O)OC (centres unmarked) [A5, Metalaxyl]
- Efficacy in % ([1]; 0.0003 ppm, 7 days incubation): 4%
- Efficacy in % ([2]; 0.0003 ppm, 5 days incubation): 80%

SMILES: CON=C(C(=O)OC)c1ccccc1CON=C(C)c1cccc(C(F)(F)F)c1 [A4, Trifloxystrobin]
- Efficacy in % ([2]; 1 ppm, 4 days incubation): 43%
- Efficacy in % [10]: 92%
- Efficacy in % ([5]; 0.1 ppm, 3 days incubation): 63%
- Efficacy in % ([7]; 0.1 ppm, 3 days incubation): 88%
- Efficacy in % ([7]; 1 ppm, 5 days incubation): 75%

Reference: patent US8440591B2, “Pesticidal composition comprising synthetic compound useful as nodulation agent of leguminous plants and a fungicide compound” (Bayer Cropscience AG, priority 2006, dated 2013)
